Laboratory results published in patent US10131653B2, “Heterocyclic compound” (TAKEDA PHARMACEUTICAL COMPANY LIMITED, priority 2015, dated 2018).

Legend:
Male SD rats = assay: Effect on sleep in rat (brain wave measurement); type: in vivo
Description: Male SD rats were purchased from Charles River Laboratories Japan, Inc. They were used for an experiment after an acclimation period of at least one week after carrying them in the animal experimental facility. They were bred in the animal experimental facility with environment in which 12-hours light-dark cycle was performed, humidity and temperature were controlled, and free water drinking and feeding were allowed.
Electrodes for brain wave measurement were implanted in rat cortex, muscle electrodes were implanted in rat cervical muscle, and a transmitter was implanted under rat back skin. Rats in which chronic electrodes were implanted were fully acclimated to a box for brain wave measurement, and then the brain wave measurement was performed. The brain wave data was obtained using Dataquest ART manufactured by Data Sciences International. For analysis, wakefulness, non-REM sleep and REM sleep were automatically determined using Sleep Sign which is a program for sleep analysis study by KISSEI COMTEC Co., Ltd. The compound of Example 102 was subcutaneously administered at a dose of 3 mg/kg immediately before beginning of dark period. The sum of non-REM sleep and REM sleep 1 hr after the administration was regarded as total sleep. All data were shown as the mean+standard error. For statistical analysis, variance analysis to crossover was performed (*p ?0.05).

[1] = Measurement of solubility; type: physicochemical; conditions: aqueous buffer, thermodynamic from solid; Britton-Robinson's Buffer pH 3, 37° C., shaking 2 hr; crystals from n-heptane suspension
Description: n-Heptane was added to the compounds of Examples 1, 2 and 102 at 40 mg/mL, respectively, and the mixtures were continued to be stirred at room temperature in a suspended state. After 3 to 7 days, the mixtures were filtered, and the obtained crystals as a sample were subjected to powder X-ray diffraction measurement (measurement condition: mentioned above) and solubility measurement.

human OX2 receptor = target: T1, human OX2 receptor (Homo sapiens, UniProt O43614); assay: Measurement of orexin receptor antagonistic activity (calcium fluorescence, FLIPRtetra); type: cell-based; conditions: CHO, 10 μM test compound; CHO cells expressing human OX2 receptor; OX-A 0.3 nM; read-out: Human Orexin2 receptor inhibition (at 10 μM)
T1 construct: expressed in transfected cells; host or cells: CHO cells
T1 sequence (O43614 1-444): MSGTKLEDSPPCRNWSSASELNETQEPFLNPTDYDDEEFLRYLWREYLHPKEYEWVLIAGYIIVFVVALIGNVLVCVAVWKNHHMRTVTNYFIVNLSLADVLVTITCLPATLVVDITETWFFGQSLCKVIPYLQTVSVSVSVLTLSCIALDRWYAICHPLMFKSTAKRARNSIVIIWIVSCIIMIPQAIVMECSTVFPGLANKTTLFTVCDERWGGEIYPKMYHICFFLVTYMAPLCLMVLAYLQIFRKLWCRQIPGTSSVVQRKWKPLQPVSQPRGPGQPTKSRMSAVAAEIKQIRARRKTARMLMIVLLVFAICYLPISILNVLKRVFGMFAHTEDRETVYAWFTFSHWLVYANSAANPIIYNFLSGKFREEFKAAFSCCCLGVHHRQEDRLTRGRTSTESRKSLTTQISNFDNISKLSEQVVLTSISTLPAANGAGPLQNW
Outline: (§1)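 CHO cells expressing human OX1 or OX2 receptor, cultured one day. Compound in HBSS/20 mM HEPES/0.1% BSA added, then orexin-A at 1 nM final (OX1) or 0.3 nM final (OX2); calcium fluorescence by FLIPRtetra every 1 s for 2 min.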

human OX1 receptor = target: T2, human OX1 receptor (Homo sapiens, UniProt O43613); assay: as above; type: cell-based; conditions: 10 μM test compound; CHO cells expressing human OX1 receptor; OX-A 1 nM
T2 construct: expressed in transfected cells; host or cells: CHO cells
T2 sequence (O43613 1-425): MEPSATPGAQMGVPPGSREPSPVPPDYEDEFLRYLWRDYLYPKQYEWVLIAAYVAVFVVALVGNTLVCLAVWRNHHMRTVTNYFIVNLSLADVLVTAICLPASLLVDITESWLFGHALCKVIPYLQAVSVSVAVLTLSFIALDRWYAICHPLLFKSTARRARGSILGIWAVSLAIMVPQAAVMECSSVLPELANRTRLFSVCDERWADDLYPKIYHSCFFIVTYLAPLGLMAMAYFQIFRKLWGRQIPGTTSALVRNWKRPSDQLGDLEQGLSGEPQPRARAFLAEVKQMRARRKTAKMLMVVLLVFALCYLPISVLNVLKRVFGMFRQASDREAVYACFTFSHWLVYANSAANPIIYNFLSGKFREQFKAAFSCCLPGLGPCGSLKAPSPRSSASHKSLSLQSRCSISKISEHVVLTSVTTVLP
Outline: as §1

- solubility at 2 h [1]: ≥ 5000 µg/mL
- inhibition at 10 µM (human OX2 receptor): 101%
- Human Orexin1 receptor inhibition (at 10 μM) (human OX1 receptor): 94%
Structure (SMILES): Cc1cc(N2CCN(C(=O)c3cc(Cl)ccc3-n3nccn3)C[C@H](C)O2)nc(C)n1 [Example 102, (5-chloro-2-(2H-1,2,3-triazol-2-yl)phenyl)((7S)-2-(2,6-dimethylpyrimidin-4-yl)-7-methyl-1,2,5-oxadiazepan-5-yl)methanone]
- Total sleep compared with solvent control group (Male SD rats; 3 mg/kg subcutaneous): significantly increased
- Total sleep (Male SD rats; 3 mg/kg subcutaneous immediately before dark period, sum of non-REM and REM sleep 1 hr after administration, mean): 33.51 min
